{"source": "patent US4694069A", "about": "“Kibdelosporangium aridum SK&F-AAD-609” (SmithKline Beckman Corporation, priority 1985, dated 1987)", "key": {"[1]": {"tested_on": "rumen fermentation (strained rumen fluid)", "experiment": "Rumen in vitro model", "parameters": "species or system steer", "details": "for AAN (alpha amino nitrogen) / AMO (ammonia nitrogen) / LYS (lysine): 6 h; for % PR (percent propionate) / ACE (acetate) / BUT (butyrate) / ETOH (ethanol) / IBU (isobutyrate) / IVA (isovalerate) / PRO (propionate) / TOTAL (total volatile fatty acids) / VAL: 24 h", "experimental": "The AAD-609 antibiotics were characterized in a rumen in vitro model to assess their potential as feed additives for ruminants. […] Specifically, strained rumen fluid (10 ml) obtained from a fistulated steer receiving a roughage ration, was mixed with 10 ml of nutrient broth (20 mg casein hydrolysate, 100 mg maltose, 15 mg urea, 400 mg solka floc (cellulose), 100 mg cellobiose and 100 mg starch) and with a selected growth promotant and incubated at 39° C., with oscillation, for 24 hours. […] Measurement of AMO, LYS and AAN was done with a sample taken from the incubation flask after 6 hours."}, "[2]": {"tested_on": "mixed intestinal microflora (cecum fluid)", "experiment": "Swine in vitro model", "details": "one level, up to 166.67 ppm; 4-5 h", "experimental": "A swine in vitro model was used to characterize AAD-609 antibiotics as potential feed additives in swine and poultry. Mixed intestinal microflora were obtained from ileally-cannulated pigs. Virginiamycin, carbadox, AAD-216 and its components, and AAD-609 Complex (containing less than 5% AAD-216 antibiotics) were tested at one level. […] Glucose (GLU) was spared from microbial degradation. Volatile fatty acids (TOTAL) were the major end-product of microbial metabolism while lactic acid production were reduced. […] Since AAD-609 and AAD-216 give similar in vitro results, it is expected that AAD-609 has similar growth-promoting activity in monogastric animals. Also, the in vitro activity of AAD-609 is similar to the activity previously observed with bacitracin in this model.\nThe swine in vitro model was carried out by incubating 1.5 ml of cecum fluid, from a swine fed normal rations, mixed with 1.5 ml of a nutrient broth (3 mg casein hydrolysate, 30 mg maltose, 1.25 mg urea, 0.5 mg lysine, and 30 mg cellobiose) and with up to 166.67 parts per million of a selected growth promotant at 39° C., with oscillation, for about 4-5 hours. Results, percentage of control, are reported in the following table in which all abbreviations are as above except that LLA means L-lactate and ETOH means ethanol."}}, "data": [{"smiles": "CNC1C(=O)NC2C(=O)NC(C(=O)NC3C(=O)NC4C(=O)NC(C(=O)NC(C(=O)O)c5cc(O)cc(OC6OC(CO)C(O)C(O)C6O)c5-c5cc4ccc5O)C(O)c4cc(Cl)c(c(Cl)c4)Oc4cc3cc(c4OC3OC(C(=O)O)C(O)C(O)C3NC(=O)CCCCCCCC(C)C)Oc3ccc(cc3Cl)C2O)c2cc(cc(O)c2Cl)Oc2cc1ccc2O", "note": "(stereo not drawn) [AAD-216 B]", "values": [{"measurement": "AAN (alpha amino nitrogen)", "setting": "[1]; 0.50 ppm", "value": "121 % of control"}, {"measurement": "AMO (ammonia nitrogen)", "setting": "[1]; 0.50 ppm", "value": "96 % of control"}, {"measurement": "LYS (lysine)", "setting": "[1]; 0.50 ppm", "value": "96 % of control"}, {"measurement": "% PR (percent propionate)", "setting": "[1]; 0.50 ppm", "value": "104 % of control"}, {"measurement": "ACE (acetate)", "setting": "[1]; 0.50 ppm", "value": "107 % of control"}, {"measurement": "BUT (butyrate)", "setting": "[1]; 0.50 ppm", "value": "97 % of control"}, {"measurement": "ETOH (ethanol)", "setting": "[1]; 0.50 ppm", "value": "0 % of control"}, {"measurement": "IBU (isobutyrate)", "setting": "[1]; 0.50 ppm", "value": "108 % of control"}, {"measurement": "IVA (isovalerate)", "setting": "[1]; 0.50 ppm", "value": "94 % of control"}, {"measurement": "PRO (propionate)", "setting": "[1]; 0.50 ppm", "value": "108 % of control"}, {"measurement": "TOTAL (total volatile fatty acids)", "setting": "[1]; 0.50 ppm", "value": "103 % of control"}, {"measurement": "VAL", "setting": "[1]; 0.50 ppm", "value": "101 % of control"}, {"measurement": "AAN (alpha amino nitrogen)", "setting": "[1]; 5.00 ppm", "value": "140 % of control"}, {"measurement": "AMO (ammonia nitrogen)", "setting": "[1]; 5.00 ppm", "value": "93 % of control"}, {"measurement": "LYS (lysine)", "setting": "[1]; 5.00 ppm", "value": "120 % of control"}, {"measurement": "% PR (percent propionate)", "setting": "[1]; 5.00 ppm", "value": "141 % of control"}, {"measurement": "ACE (acetate)", "setting": "[1]; 5.00 ppm", "value": "106 % of control"}, {"measurement": "BUT (butyrate)", "setting": "[1]; 5.00 ppm", "value": "88 % of control"}, {"measurement": "ETOH (ethanol)", "setting": "[1]; 5.00 ppm", "value": "0 % of control"}, {"measurement": "IBU (isobutyrate)", "setting": "[1]; 5.00 ppm", "value": "95 % of control"}, {"measurement": "IVA (isovalerate)", "setting": "[1]; 5.00 ppm", "value": "67 % of control"}, {"measurement": "PRO (propionate)", "setting": "[1]; 5.00 ppm", "value": "153 % of control"}, {"measurement": "TOTAL (total volatile fatty acids)", "setting": "[1]; 5.00 ppm", "value": "108 % of control"}, {"measurement": "VAL", "setting": "[1]; 5.00 ppm", "value": "86 % of control"}, {"measurement": "AAN (alpha amino nitrogen)", "setting": "[1]; 50.00 ppm", "value": "178 % of control"}, {"measurement": "AMO (ammonia nitrogen)", "setting": "[1]; 50.00 ppm", "value": "107 % of control"}, {"measurement": "LYS (lysine)", "setting": "[1]; 50.00 ppm", "value": "132 % of control"}, {"measurement": "% PR (percent propionate)", "setting": "[1]; 50.00 ppm", "value": "144 % of control"}, {"measurement": "ACE (acetate)", "setting": "[1]; 50.00 ppm", "value": "103 % of control"}, {"measurement": "BUT (butyrate)", "setting": "[1]; 50.00 ppm", "value": "98 % of control"}, {"measurement": "ETOH (ethanol)", "setting": "[1]; 50.00 ppm", "value": "0 % of control"}, {"measurement": "IBU (isobutyrate)", "setting": "[1]; 50.00 ppm", "value": "123 % of control"}, {"measurement": "IVA (isovalerate)", "setting": "[1]; 50.00 ppm", "value": "111 % of control"}, {"measurement": "PRO (propionate)", "setting": "[1]; 50.00 ppm", "value": "159 % of control"}, {"measurement": "TOTAL (total volatile fatty acids)", "setting": "[1]; 50.00 ppm", "value": "110 % of control"}, {"measurement": "VAL", "setting": "[1]; 50.00 ppm", "value": "28 % of control"}, {"measurement": "% PR (percent propionate)", "setting": "[2]", "value": "119 % of control"}, {"measurement": "ACE (acetate)", "setting": "[2]", "value": "217 % of control"}, {"measurement": "BUT (butyrate)", "setting": "[2]", "value": "154 % of control"}, {"measurement": "ETOH (ethanol)", "setting": "[2]", "value": "104 % of control"}, {"measurement": "GLU (glucose)", "setting": "[2]", "value": "180 % of control"}, {"measurement": "IBU (isobutyrate)", "setting": "[2]", "value": "0 % of control"}, {"measurement": "IVA (isovalerate)", "setting": "[2]", "value": "0 % of control"}, {"measurement": "LLA (L-lactate)", "setting": "[2]", "value": "2 % of control"}, {"measurement": "LYS (lysine)", "setting": "[2]", "value": "25 % of control"}, {"measurement": "PRO (propionate)", "setting": "[2]", "value": "305 % of control"}, {"measurement": "TOTAL (total volatile fatty acids)", "setting": "[2]", "value": "257 % of control"}, {"measurement": "VAL", "setting": "[2]", "value": "0 % of control"}]}, {"smiles": "CNC1C(=O)NC2C(=O)NC(C(=O)NC3C(=O)NC4C(=O)NC(C(=O)NC(C(=O)O)c5cc(O)cc(OC6OC(CO)C(O)C(O)C6O)c5-c5cc4ccc5O)C(O)c4cc(Cl)c(c(Cl)c4)Oc4cc3cc(c4OC3OC(C(=O)O)C(O)C(O)C3NC(=O)CCCCCCCCC(C)C)Oc3ccc(cc3Cl)C2O)c2cc(cc(O)c2Cl)Oc2cc1ccc2O", "note": "(stereo not drawn) [AAD-216 C]", "values": [{"measurement": "AAN (alpha amino nitrogen)", "setting": "[1]; 0.50 ppm", "value": "96 % of control"}, {"measurement": "AMO (ammonia nitrogen)", "setting": "[1]; 0.50 ppm", "value": "99 % of control"}, {"measurement": "LYS (lysine)", "setting": "[1]; 0.50 ppm", "value": "78 % of control"}, {"measurement": "% PR (percent propionate)", "setting": "[1]; 0.50 ppm", "value": "105 % of control"}, {"measurement": "ACE (acetate)", "setting": "[1]; 0.50 ppm", "value": "94 % of control"}, {"measurement": "BUT (butyrate)", "setting": "[1]; 0.50 ppm", "value": "101 % of control"}, {"measurement": "ETOH (ethanol)", "setting": "[1]; 0.50 ppm", "value": "0 % of control"}, {"measurement": "IBU (isobutyrate)", "setting": "[1]; 0.50 ppm", "value": "123 % of control"}, {"measurement": "IVA (isovalerate)", "setting": "[1]; 0.50 ppm", "value": "123 % of control"}, {"measurement": "PRO (propionate)", "setting": "[1]; 0.50 ppm", "value": "105 % of control"}, {"measurement": "TOTAL (total volatile fatty acids)", "setting": "[1]; 0.50 ppm", "value": "100 % of control"}, {"measurement": "VAL", "setting": "[1]; 0.50 ppm", "value": "102 % of control"}, {"measurement": "AAN (alpha amino nitrogen)", "setting": "[1]; 5.00 ppm", "value": "136 % of control"}, {"measurement": "AMO (ammonia nitrogen)", "setting": "[1]; 5.00 ppm", "value": "98 % of control"}, {"measurement": "LYS (lysine)", "setting": "[1]; 5.00 ppm", "value": "102 % of control"}, {"measurement": "% PR (percent propionate)", "setting": "[1]; 5.00 ppm", "value": "148 % of control"}, {"measurement": "ACE (acetate)", "setting": "[1]; 5.00 ppm", "value": "96 % of control"}, {"measurement": "BUT (butyrate)", "setting": "[1]; 5.00 ppm", "value": "83 % of control"}, {"measurement": "ETOH (ethanol)", "setting": "[1]; 5.00 ppm", "value": "0 % of control"}, {"measurement": "IBU (isobutyrate)", "setting": "[1]; 5.00 ppm", "value": "86 % of control"}, {"measurement": "IVA (isovalerate)", "setting": "[1]; 5.00 ppm", "value": "56 % of control"}, {"measurement": "PRO (propionate)", "setting": "[1]; 5.00 ppm", "value": "148 % of control"}, {"measurement": "TOTAL (total volatile fatty acids)", "setting": "[1]; 5.00 ppm", "value": "100 % of control"}, {"measurement": "VAL", "setting": "[1]; 5.00 ppm", "value": "51 % of control"}, {"measurement": "AAN (alpha amino nitrogen)", "setting": "[1]; 50.00 ppm", "value": "166 % of control"}, {"measurement": "AMO (ammonia nitrogen)", "setting": "[1]; 50.00 ppm", "value": "106 % of control"}, {"measurement": "LYS (lysine)", "setting": "[1]; 50.00 ppm", "value": "144 % of control"}, {"measurement": "% PR (percent propionate)", "setting": "[1]; 50.00 ppm", "value": "149 % of control"}, {"measurement": "ACE (acetate)", "setting": "[1]; 50.00 ppm", "value": "98 % of control"}, {"measurement": "BUT (butyrate)", "setting": "[1]; 50.00 ppm", "value": "88 % of control"}, {"measurement": "ETOH (ethanol)", "setting": "[1]; 50.00 ppm", "value": "0 % of control"}, {"measurement": "IBU (isobutyrate)", "setting": "[1]; 50.00 ppm", "value": "111 % of control"}, {"measurement": "IVA (isovalerate)", "setting": "[1]; 50.00 ppm", "value": "87 % of control"}, {"measurement": "PRO (propionate)", "setting": "[1]; 50.00 ppm", "value": "154 % of control"}, {"measurement": "TOTAL (total volatile fatty acids)", "setting": "[1]; 50.00 ppm", "value": "104 % of control"}, {"measurement": "VAL", "setting": "[1]; 50.00 ppm", "value": "30 % of control"}, {"measurement": "% PR (percent propionate)", "setting": "[2]", "value": "127 % of control"}, {"measurement": "ACE (acetate)", "setting": "[2]", "value": "175 % of control"}, {"measurement": "BUT (butyrate)", "setting": "[2]", "value": "105 % of control"}, {"measurement": "ETOH (ethanol)", "setting": "[2]", "value": "0 % of control"}, {"measurement": "GLU (glucose)", "setting": "[2]", "value": "181 % of control"}, {"measurement": "IBU (isobutyrate)", "setting": "[2]", "value": "0 % of control"}, {"measurement": "IVA (isovalerate)", "setting": "[2]", "value": "0 % of control"}, {"measurement": "LLA (L-lactate)", "setting": "[2]", "value": "2 % of control"}, {"measurement": "LYS (lysine)", "setting": "[2]", "value": "29 % of control"}, {"measurement": "PRO (propionate)", "setting": "[2]", "value": "281 % of control"}, {"measurement": "TOTAL (total volatile fatty acids)", "setting": "[2]", "value": "221 % of control"}, {"measurement": "VAL", "setting": "[2]", "value": "0 % of control"}]}]}
